Key:
[1] = system: Human heart; assay type: biochemical; details: Human heart; 1 mg/ml, acidized homogenate pH6.0; Paclitaxel release by HPLC
[2] = system: Human fibrosarcoma HT-1080 tumor tissue homogenate; assay type: biochemical; details: Human fibrosarcoma HT-1080; 1 mg/ml, 100 μg acidized homogenate pH6.0; Paclitaxel release by HPLC
Method in brief: (§1)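 Compounds at 1 mg/ml were incubated at 37°C with 100 μg acidized tissue homogenate (pH 6.0). Activation by homogenate proteases was assessed.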

[3] = system: tumor tissue homogenates; assay type: biochemical
Method in brief: as §1

[4] = Solubility / formulation test in solvent 1 and solvent 2; assay type: physicochemical
[5] = system: Human prostate cancer PC-3 cells / Panc-1 cells; assay: Tumor treatment in nude mice (PC-3 cells purchased, Panc-1 cells injected; Examples 22, 32, 42); assay type: in vivo
Method in brief: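 Nude mice bearing subcutaneous Panc-1 xenografts (5×10^6 cells on the back) were randomized once tumors reached at least 100 mm^3. Drugs were given intravenously once weekly for four weeks, with saline controls. PC-3 cells were grown in DMEM/10% FBS and used within passage 15.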

[6] = system: 4T1 cells; assay: BALB/C mice model for tumor metastasis (4T1, lung metastases); assay type: in vivo
Method in brief: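 10^6 4T1 cells (DMEM, 10% FBS, within passage 15) injected subcutaneously into the back of BALB/C mice; primary tumor resected at about 1.5 cm, then dosing began. Drugs given IV once every three days, 4 times; saline controls. Lungs removed day 27, Bouin's-stained, metastases counted under anatomical microscope.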

[7] = system: Human breast cancer MDA-MB435; assay: Multiple tumor models in nude mice: MDA-MB435; assay type: in vivo; details: Table 29, i.v. 17.6 μmol/kg once weekly for three weeks
Procedure: (§2) 1) Corresponding tumor cells were purchased from American type culture collection (ATCC) and identified according the specification provided by ATCC. Cells were cultivated in DMEM culture solution containing 10% fetal bovine serum at 37° C. and 5% CO2. The cells were passaged for every three days and cells within the 15th passage were used.
(§3) 2) Production of tumor. 5×10^6 corresponding cells were subcutaneously injected to the back of the nude mice. Mice were randomly grouped after the tumor reached at least 100 mm^3. Then treatment began and the day on which the treatment began was day 1.
(§4) 3) Course of treatment. […] The control group was administered by physiological saline. Animals were administered once weekly for three weeks.
(§5) 3) Course of treatment. According to the clinical application of A1, A1 was administered in a dose of ⅙ MTD, i.v., 17.6 μmol/kg. The control group was administered by physiological saline. Animals were administered once weekly for three weeks.
(§6) 3) Course of treatment. According to the clinical application of B1, B1 was administered in a dose of ⅙ MTD, i.v., 17.6 μmol/kg. The control group was administered by physiological saline. Animals were administered once weekly for three weeks.
as §4, §4

[8] = system: Human liver cancer Hepg2; assay: Multiple tumor models in nude mice: Hepg2; assay type: in vivo; details: Table 29, i.v. 17.6 μmol/kg once weekly for three weeks
Procedure: as §2, §3, §4, §5, §6, §4, §4

[9] = system: BALB/C mice; assay: Maximum tolerated dose (MTD) / acute toxicity by single intravenous injection; details: for Mortality rate (%) / Number of dead animal: single intravenous injection, 10 BALB/C mice per group
[10] = Table 26, nude mice, IV once weekly for four weeks, A1-A4 24 mg/kg, Paclitaxel 8 mg/kg, Day 10
[11] = Table 26, nude mice, IV once weekly for four weeks, A1-A4 24 mg/kg, Paclitaxel 8 mg/kg, Day 24
[12] = Table 28, BALB/C mice, 4T1, lung metastases day 27, IV every three days for 4 times, A1-A4 12 mg/kg, Paclitaxel 4 mg/kg

In the case of `COCCOCC(=O)NCCCC[C@H](NC(=O)COCCOC)C(=O)N[C@H](C)C(=O)N[C@H](C)C(=O)N[C@H](CC(N)=O)C(=O)Nc1ccc(COC(=O)OC(C(=O)OC2C[C@@]3(O)[C@@H](OC(=O)c4ccccc4)[C@H]4[C@](C)(C(=O)[C@H](OC(C)=O)C(=C2C)C3(C)C)[C@@H](O)CC2OC[C@]24OC(C)=O)[C@@H](NC(=O)c2ccccc2)c2ccccc2)cc1` (stereo partly drawn) [Compound A1], the “Activation ratio (%) in homogenates from different tumor tissues” value [1] is reported as “none”, the “Activation ratio (%) in homogenates from different tumor tissues” value [2] is reported as 77.7% and the “Activation efficiency by tumor tissue, in words” value [3] is reported as “highest activation efficiency among the screened compounds”. The “solubility in Solvent 1” value ([4]; solvent 1 (injectable water), Table 22, Paclitaxel series) was “insoluble”, the “Concentration achieved, completely dissolved in both solvent 1 and solvent 2” value ([4]; solvent 1 injectable water, solvent 2 45% alcohol, 55% injectable water) was 10000 µg/mL and the “solubility in Solvent 2” value ([4]; solvent 2 (45% alcohol, 55% injectable water), Table 22, Paclitaxel series) was “soluble”. For the same compound, the “Solubility in water, in words” value ([4]; water) was “can directly dissolve in water”, the “Size of tumor (mm^3) Day 10” value [5, 10] was 85.16 ± 58.4 mm^3 and the “inhibitory rate on tumor Day 10” value [5, 10] was 71.1%. For the same compound, the “Size of tumor (mm^3) Day 24” value [5, 11] was 89.78 ± 63.7 mm^3, the “inhibitory rate on tumor Day 24” value [5, 11] was 76.4% and the “Inhibition on tumor growth, in words” value ([5]; compared with parent drug group (same molar concentration) and control group) was “greatly improved”. For the same compound, the “Inhibitory rate on metastasis” value [6, 12] was 97.9%, the “Number of metastasized tumor” value [6, 12] was 3 ± 4 and the “Inhibitory effect on tumor metastasis, in words” value ([6]; compared with parent drug group and control group) was “greatly improved”. The “inhibitory rate on tumor (Day 26)” value [7] was 91.2%, the “inhibitory rate on tumor (Day 26)” value [8] was 85.4% and the “Behaviors and death observed” value ([9]; BALB/C mice receiving 90 mg/kg injection) was “no pilo-erection, hair tousle and lackluster, lethargy, stoop, irritable reaction and death”. The “MTD (maximum tolerated dose)” value ([9]; BALB/C mice, intravenous injection, one time) was “about 90 mg/kg”, the “Mortality rate (%)” value ([9]; 125 mg/kg) was 0% and the “Number of dead animal” value ([9]; 125 mg/kg) was 0. The “Mortality rate (%)” value ([9]; 150 mg/kg) was 0%, the “Number of dead animal” value ([9]; 150 mg/kg) was 0 and the “Mortality rate (%)” value ([9]; 175 mg/kg) was 0%. For the same compound, the “Number of dead animal” value ([9]; 175 mg/kg) was 0, the “Mortality rate (%)” value ([9]; 200 mg/kg) was 0% and the “Number of dead animal” value ([9]; 200 mg/kg) was 0.

Source: patent publication US10682371B2, “Small molecule conjugates specifically activated in tumor microenvironment for targeting and use thereof” (priority 2014, dated 2020)
